Data on one compound can be found in patent publication US20260224658A1, “PRODUCTS AND METHODS FOR THE DIAGNOSIS AND TREATMENT OF P[…]” (priority 2023, published 2026).

One experiment relates to MPAO1-ΔmutS. Nature of the experiment: In vitro adaptive evolution (serial passaging) with MIC determination. Type of experiment: cell-based, Pseudomonas aeruginosa. Here is the method:
(§1) MICs were determined via microbroth dilution assay in 96-well culture plates with 2-fold serial dilutions of tested antibiotic in Mueller-Hinton (cation-adjusted) broth, inoculated with 50 μL of 2.75×10^5 CFU/mL of each bacterial strain and incubated at 37° C., 200 rpm for 24 hours. MIC experiments were performed using biological triplicates.
(§2) Serial passaging of bacterial strains was performed in 96-well culture plates with 2-fold serial dilutions of antibiotic in MH broth, inoculated with 50 μL 2.75×10^5 CFU/mL of each strain and incubated at 37° C., 200 rpm for 24 hours. […] The bacteria were then serially passaged in the same antibiotic and MIC determined for all antibiotics (aztreonam, ciprofloxacin, D-CONGA, D-CONGA-Q7, polymyxin B). See Antimicrobial susceptibility testing section. The bacteria were serially passaged a total of 10 times.
(§3) All resistance acquisition data was analyzed in units of fold-change to normalize for differences in starting MIC across strains. Fold-change in MIC data for all strains and treatment groups was natural log-transformed and simple linear regression was performed considering each replicate fold-change value as an individual point. Slope, standard error of slope, and total number of values of each treatment group of interest were analyzed via unpaired t-test (ΔmutS vs WT) or ordinary one-way ANOVA (cross-resistance acquisition of ΔmutS+AB vs −AB vs WT), and α-values were corrected for multiple comparisons using the Bonferroni method. Differences in estimated mutation rate across treatment groups were determined via ordinary one-way ANOVA (Brown-Forsythe test). For all statistical tests, p<0.05 was considered significant. All figures were created and statistical tests were done using GraphPad Prism 9.3.1.

The subject of the next experiment is MPAO1. Described as above. Type of experiment: cell-based, Pseudomonas aeruginosa. Here is the method:
as §1, §2, §3

For experiment [1], the system named is drug-resistant clinical isolates of Staphylococcus aureus, Klebsiella pneumoniae, Acinetobacter baumannii, and P. aeruginosa. The conditions noted are these: in vitro and in vivo, reference 23; cited from earlier work.
Experiment [2] deals with wild type P. aeruginosa (PAO1). The settings on record: reference 23; cited from earlier work.
[3] abbreviates: MPAO1-ΔmutS evolved in the named drug.

Where a SMILES comes first, the peptide text is derived from it. [ ]: non-standard residue; d: D form.

Turning to `CC(C)C[C@@H](NC(=O)[C@@H](CCC(N)=O)NC(=O)[C@@H](CCCNC(=N)N)NC(=O)[C@@H](CCCNC(=N)N)NC(=O)[C@@H](C)NC(=O)[C@@H](Cc1c[nH]c2ccccc12)NC(=O)[C@@H](CCCNC(=N)N)NC(=O)[C@H](N)CCCNC(=N)N)C(=O)N[C@H](C)C(=O)N[C@H](Cc1ccccc1)C(=O)N[C@H](C)C(=O)N[C@H](Cc1ccccc1)C(=O)N[C@H](CCCNC(=N)N)C(=O)N[C@H](CCCNC(=N)N)C(N)=O` [D-CONGA-Q7] (H-[dR][dR][dW][dA][dR][dR][dQ][dL][dA][dF][dA][dF][dR][dR]-NH2; N-terminus and C-terminus assumed), the “fold-change relative to starting MIC before treatment” value in the experiment on MPAO1-ΔmutS (MPAO1-ΔmutS evolved in AZ) is reported as 0.42; with MPAO1-ΔmutS (MPAO1-ΔmutS evolved in AZ + COL), 2; in the experiment on MPAO1-ΔmutS (MPAO1-ΔmutS evolved in AZ + D-CONGA) it was 0.67; in the experiment with MPAO1-ΔmutS (MPAO1-ΔmutS evolved in AZ + D-CONGA-Q7), 0.67; with MPAO1-ΔmutS (MPAO1-ΔmutS evolved in COL), 1.75; in the experiment with MPAO1-ΔmutS (MPAO1-ΔmutS evolved in Chl), 1. Further, the “fold-change relative to starting MIC before treatment” value is given as 2.67 in the experiment with MPAO1-ΔmutS (MPAO1-ΔmutS evolved in D-CONGA); 3.33 with MPAO1-ΔmutS (MPAO1-ΔmutS evolved in D-CONGA-Q7); 1 in the experiment on MPAO1-ΔmutS (MPAO1-ΔmutS passaged with No Antibiotic (Table 4)); 1.38 in the experiment on MPAO1-ΔmutS (MPAO1-ΔmutS passaged with No Antibiotic (Table 8)); 1.2 in the experiment on MPAO1 (MPAO1 evolved in AZ); 1 in the experiment on MPAO1 (MPAO1 evolved in AZ + COL). The “fold-change relative to starting MIC before treatment” value in the experiment on MPAO1 (MPAO1 evolved in AZ + D-CONGA) was found to be 1.2; in the experiment with MPAO1 (MPAO1 evolved in AZ + D-CONGA-Q7) it was 1.2; with MPAO1 (MPAO1 evolved in COL), 1; in the experiment with MPAO1 (MPAO1 evolved in D-CONGA) it was 1; in the experiment on MPAO1 (MPAO1 evolved in D-CONGA-Q7), 1.33; with MPAO1 (MPAO1 passaged with No Antibiotic (Table 4)), 1. The “fold-change relative to starting MIC before treatment” value in the experiment with MPAO1 (MPAO1 passaged with No Antibiotic (Table 8)) was 1. Further, in the experiment with MPAO1-ΔmutS (setting [3]), the “cross-resistance to antibiotics induced by treatment” value is “failed to induce marked cross-resistance to antibiotics”. Also, the “cross-resistance to peptides induced by treatment” value in the experiment with MPAO1-ΔmutS (setting [3]) was “induced cross-resistance to other peptides”. For the same compound, the “resistance acquisition on repeated exposure to the drug” value with MPAO1-ΔmutS (MPAO1-ΔmutS, monotherapy) is listed as “developed resistance”. The “efficacy against drug-resistant clinical isolates” value in experiment [1] is “efficacious in vitro and in vivo”. Also, the induction of resistance result in experiment [2] is recorded as “has not been observed”.
